Tests used:
Test in all cases: split-luciferase competition binding
PRKCE (human) = PRKCE (human) (UniProt Q02156); details: compound 10.0 µM
PRKCI (human) = PRKCI (human) (UniProt P41743); details: compound 10.0 µM
PRKCQ (human) = PRKCQ (human) (UniProt Q04759); details: compound 10.0 µM
AURKB (human) = AURKB (human) (UniProt Q96GD4); details: compound 10.0 µM
PRKCD (human) = PRKCD (human) (UniProt Q05655); details: compound 10.0 µM
SGK3 (human) = SGK3 (human) (UniProt Q96BR1); details: compound 10.0 µM
PDPK1 (human) = PDPK1 (human) (UniProt O15530); details: compound 10.0 µM
Chain of PDPK1 (human) (O15530 whole entry, looked up): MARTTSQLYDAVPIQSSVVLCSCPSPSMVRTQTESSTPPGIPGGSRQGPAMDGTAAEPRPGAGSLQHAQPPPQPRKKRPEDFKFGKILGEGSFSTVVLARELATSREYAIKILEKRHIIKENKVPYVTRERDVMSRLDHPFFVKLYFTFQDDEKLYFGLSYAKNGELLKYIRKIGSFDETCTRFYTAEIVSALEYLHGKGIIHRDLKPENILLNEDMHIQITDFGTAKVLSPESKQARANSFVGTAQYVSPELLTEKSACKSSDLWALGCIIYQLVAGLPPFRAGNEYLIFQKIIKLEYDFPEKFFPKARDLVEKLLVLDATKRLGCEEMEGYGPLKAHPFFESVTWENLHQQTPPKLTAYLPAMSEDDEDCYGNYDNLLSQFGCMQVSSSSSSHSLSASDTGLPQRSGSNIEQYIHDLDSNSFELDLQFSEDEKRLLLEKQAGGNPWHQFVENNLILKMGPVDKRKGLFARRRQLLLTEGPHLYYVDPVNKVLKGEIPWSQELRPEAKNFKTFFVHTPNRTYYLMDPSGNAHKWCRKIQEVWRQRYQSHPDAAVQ

RPS6KA5 KD1 (human) = RPS6KA5 KD1 (human) (UniProt O75582); details: compound 10.0 µM
DMPK (human) = DMPK (human) (UniProt Q09013); details: compound 10.0 µM
AKT3 (human) = AKT3 (human) (UniProt Q9Y243); details: compound 10.0 µM
AURKA (human) = AURKA (human) (UniProt O14965); details: compound 10.0 µM
Chain of AURKA (human) (O14965 whole entry, looked up): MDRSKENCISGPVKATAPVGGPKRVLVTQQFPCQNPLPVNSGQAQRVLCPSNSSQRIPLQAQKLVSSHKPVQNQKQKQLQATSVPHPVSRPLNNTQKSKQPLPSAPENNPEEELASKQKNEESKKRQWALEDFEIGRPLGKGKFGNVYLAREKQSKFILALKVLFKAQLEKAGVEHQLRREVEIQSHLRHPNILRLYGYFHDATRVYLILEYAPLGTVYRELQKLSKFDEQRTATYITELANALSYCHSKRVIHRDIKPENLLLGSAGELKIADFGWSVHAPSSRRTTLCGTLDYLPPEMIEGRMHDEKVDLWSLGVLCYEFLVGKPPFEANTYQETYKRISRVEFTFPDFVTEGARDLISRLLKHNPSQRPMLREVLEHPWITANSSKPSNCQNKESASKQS

AKT1 (human) = AKT1 (human) (UniProt P31749); details: compound 10.0 µM
RPS6KA6 KD1 (human) = RPS6KA6 KD1 (human) (UniProt Q9UK32); details: compound 10.0 µM
Chain of RPS6KA6 KD1 (human) (Q9UK32 whole entry, looked up): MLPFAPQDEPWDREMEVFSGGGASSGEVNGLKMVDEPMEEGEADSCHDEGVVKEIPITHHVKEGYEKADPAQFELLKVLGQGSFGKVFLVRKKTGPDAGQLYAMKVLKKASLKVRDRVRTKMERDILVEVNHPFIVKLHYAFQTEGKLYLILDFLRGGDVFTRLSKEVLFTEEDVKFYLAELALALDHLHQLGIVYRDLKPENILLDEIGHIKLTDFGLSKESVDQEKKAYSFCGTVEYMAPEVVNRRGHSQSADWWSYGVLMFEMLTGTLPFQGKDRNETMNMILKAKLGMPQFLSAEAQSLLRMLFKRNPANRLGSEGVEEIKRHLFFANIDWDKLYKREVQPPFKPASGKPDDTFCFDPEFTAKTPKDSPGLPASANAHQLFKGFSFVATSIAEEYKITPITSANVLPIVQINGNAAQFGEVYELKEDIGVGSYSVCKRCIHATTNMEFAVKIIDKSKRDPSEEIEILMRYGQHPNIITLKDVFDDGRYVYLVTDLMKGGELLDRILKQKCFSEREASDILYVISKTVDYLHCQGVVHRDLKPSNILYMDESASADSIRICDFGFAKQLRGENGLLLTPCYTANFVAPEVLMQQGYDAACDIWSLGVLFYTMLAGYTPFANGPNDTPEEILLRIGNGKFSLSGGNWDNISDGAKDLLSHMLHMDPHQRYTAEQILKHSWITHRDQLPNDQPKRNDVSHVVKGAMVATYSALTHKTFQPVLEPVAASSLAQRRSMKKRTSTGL

SGK2 (human) = SGK2 (human) (UniProt Q9HBY8); details: compound 10.0 µM
AURKC (human) = AURKC (human) (UniProt Q9UQB9); details: compound 10.0 µM
RPS6KA3 KD1 (human) = RPS6KA3 KD1 (human) (UniProt P51812); details: compound 10.0 µM
PRKACB (human) = PRKACB (human) (UniProt P22694); details: compound 10.0 µM
PRKCG (human) = PRKCG (human) (UniProt P05129); details: compound 10.0 µM
AKT2 (human) = AKT2 (human) (UniProt P31751); details: compound 10.0 µM
PRKACA (mouse) = details: compound 10.0 µM; accession and sequence are those of the human protein
PRKCH (human) = PRKCH (human) (UniProt P24723); details: compound 10.0 µM
RPS6KA2 KD1 (human) = RPS6KA2 KD1 (human) (UniProt Q15349); details: compound 10.0 µM
PRKX (human) = PRKX (human) (UniProt P51817); details: compound 10.0 µM
PKN1 (human) = PKN1 (human) (UniProt Q16512); details: compound 10.0 µM
Chain of PKN1 (human) (Q16512 whole entry, looked up): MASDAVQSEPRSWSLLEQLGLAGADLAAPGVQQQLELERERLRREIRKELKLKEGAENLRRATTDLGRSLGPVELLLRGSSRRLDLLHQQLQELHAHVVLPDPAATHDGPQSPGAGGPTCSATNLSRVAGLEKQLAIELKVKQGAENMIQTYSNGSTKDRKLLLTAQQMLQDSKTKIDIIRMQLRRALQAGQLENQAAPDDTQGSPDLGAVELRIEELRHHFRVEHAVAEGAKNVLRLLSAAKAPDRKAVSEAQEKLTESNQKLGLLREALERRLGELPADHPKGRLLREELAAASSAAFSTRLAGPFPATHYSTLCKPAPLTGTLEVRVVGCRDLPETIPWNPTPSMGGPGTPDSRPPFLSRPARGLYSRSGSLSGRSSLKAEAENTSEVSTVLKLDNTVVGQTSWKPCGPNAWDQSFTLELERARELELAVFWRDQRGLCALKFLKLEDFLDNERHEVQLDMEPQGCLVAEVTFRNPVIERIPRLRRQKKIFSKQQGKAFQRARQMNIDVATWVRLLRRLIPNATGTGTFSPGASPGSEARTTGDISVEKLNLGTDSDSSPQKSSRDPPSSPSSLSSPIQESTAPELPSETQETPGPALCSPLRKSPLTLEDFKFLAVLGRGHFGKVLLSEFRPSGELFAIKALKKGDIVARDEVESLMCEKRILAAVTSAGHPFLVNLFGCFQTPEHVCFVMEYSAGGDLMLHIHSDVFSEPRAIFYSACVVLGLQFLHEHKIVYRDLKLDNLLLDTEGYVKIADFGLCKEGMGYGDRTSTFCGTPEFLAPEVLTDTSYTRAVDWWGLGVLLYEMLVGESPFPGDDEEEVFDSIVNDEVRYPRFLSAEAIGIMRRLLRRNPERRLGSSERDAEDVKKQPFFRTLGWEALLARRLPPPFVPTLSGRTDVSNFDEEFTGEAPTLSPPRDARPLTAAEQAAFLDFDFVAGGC

STK32B (human) = STK32B (human) (UniProt Q9NY57); details: compound 10.0 µM
Chain of STK32B (human) (Q9NY57 whole entry, looked up): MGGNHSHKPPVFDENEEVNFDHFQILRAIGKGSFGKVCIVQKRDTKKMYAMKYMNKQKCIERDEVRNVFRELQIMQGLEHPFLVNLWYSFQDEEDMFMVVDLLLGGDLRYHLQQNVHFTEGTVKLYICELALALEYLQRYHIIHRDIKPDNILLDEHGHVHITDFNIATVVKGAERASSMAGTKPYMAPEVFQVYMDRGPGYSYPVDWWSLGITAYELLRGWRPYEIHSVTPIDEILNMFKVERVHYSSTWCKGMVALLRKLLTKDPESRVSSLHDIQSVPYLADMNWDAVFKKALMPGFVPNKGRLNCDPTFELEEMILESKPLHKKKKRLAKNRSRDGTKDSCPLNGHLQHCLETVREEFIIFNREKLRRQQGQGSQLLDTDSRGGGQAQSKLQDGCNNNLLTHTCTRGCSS

RPS6KA1 KD1 (human) = RPS6KA1 KD1 (human) (UniProt Q15418); details: compound 10.0 µM
RPS6KA4 KD1 (human) = RPS6KA4 KD1 (human) (UniProt O75676); details: compound 10.0 µM
Chain of RPS6KA4 KD1 (human) (O75676 whole entry, looked up): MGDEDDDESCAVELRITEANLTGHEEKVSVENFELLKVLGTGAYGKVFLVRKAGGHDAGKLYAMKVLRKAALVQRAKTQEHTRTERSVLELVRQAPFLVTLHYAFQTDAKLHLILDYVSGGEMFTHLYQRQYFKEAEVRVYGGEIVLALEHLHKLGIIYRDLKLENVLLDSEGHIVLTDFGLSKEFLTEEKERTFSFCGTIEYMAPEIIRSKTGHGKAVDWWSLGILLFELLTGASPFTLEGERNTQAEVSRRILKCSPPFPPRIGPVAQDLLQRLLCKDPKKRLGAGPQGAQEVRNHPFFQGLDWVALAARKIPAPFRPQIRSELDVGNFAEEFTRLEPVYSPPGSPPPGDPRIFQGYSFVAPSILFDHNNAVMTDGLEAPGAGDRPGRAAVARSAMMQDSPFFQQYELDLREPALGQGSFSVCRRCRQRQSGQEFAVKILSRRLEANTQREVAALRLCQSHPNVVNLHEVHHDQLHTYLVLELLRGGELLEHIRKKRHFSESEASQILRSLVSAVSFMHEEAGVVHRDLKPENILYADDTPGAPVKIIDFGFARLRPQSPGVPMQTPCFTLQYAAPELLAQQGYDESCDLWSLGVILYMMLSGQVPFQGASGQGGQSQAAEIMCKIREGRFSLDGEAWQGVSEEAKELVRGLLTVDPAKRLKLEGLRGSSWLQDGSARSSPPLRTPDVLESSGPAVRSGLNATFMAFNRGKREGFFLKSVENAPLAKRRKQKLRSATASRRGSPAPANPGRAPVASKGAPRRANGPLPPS

Chain of PRKCD (human) (Q05655 whole entry, looked up): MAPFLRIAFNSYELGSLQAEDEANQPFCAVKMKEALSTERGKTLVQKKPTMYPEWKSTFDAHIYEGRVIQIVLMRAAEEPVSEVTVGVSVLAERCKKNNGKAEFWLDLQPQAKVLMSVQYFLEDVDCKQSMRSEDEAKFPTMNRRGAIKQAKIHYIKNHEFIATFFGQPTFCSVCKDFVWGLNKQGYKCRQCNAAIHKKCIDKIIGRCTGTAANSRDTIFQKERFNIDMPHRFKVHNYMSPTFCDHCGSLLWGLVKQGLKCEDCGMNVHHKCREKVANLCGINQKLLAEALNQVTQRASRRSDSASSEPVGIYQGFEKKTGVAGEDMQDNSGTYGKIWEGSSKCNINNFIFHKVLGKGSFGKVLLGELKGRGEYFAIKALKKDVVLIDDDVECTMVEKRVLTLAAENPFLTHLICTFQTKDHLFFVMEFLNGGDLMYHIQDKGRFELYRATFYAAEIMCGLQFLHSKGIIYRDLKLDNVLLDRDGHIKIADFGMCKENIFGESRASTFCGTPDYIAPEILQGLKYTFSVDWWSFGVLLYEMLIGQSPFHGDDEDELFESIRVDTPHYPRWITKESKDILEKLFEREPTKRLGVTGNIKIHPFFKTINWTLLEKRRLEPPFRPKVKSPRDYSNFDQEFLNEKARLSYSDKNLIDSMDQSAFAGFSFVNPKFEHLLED
Chain of AURKB (human) (Q96GD4 whole entry, looked up): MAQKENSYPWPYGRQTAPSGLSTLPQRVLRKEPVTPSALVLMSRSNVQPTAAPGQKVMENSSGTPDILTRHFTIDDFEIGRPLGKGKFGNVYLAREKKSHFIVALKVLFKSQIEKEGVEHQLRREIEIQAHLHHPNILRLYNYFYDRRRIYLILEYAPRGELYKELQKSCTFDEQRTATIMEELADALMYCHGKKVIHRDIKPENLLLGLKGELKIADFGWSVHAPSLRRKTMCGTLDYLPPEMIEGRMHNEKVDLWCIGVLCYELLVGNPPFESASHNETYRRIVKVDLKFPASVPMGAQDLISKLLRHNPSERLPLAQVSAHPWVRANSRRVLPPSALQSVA

Structure (SMILES)	inhibition (PRKCE (human)) [%]	inhibition (PRKCI (human)) [%]	inhibition (PRKCQ (human)) [%]	inhibition (AURKB (human)) [%]	inhibition (PRKCD (human)) [%]	inhibition (SGK3 (human)) [%]	inhibition (PDPK1 (human)) [%]	inhibition (RPS6KA5 KD1 (human)) [%]	inhibition (DMPK (human)) [%]	inhibition (AKT3 (human)) [%]	inhibition (AURKA (human)) [%]	inhibition (AKT1 (human)) [%]	inhibition (RPS6KA6 KD1 (human)) [%]	inhibition (SGK2 (human)) [%]	inhibition (AURKC (human)) [%]	inhibition (RPS6KA3 KD1 (human)) [%]	inhibition (PRKACB (human)) [%]	inhibition (PRKCG (human)) [%]	inhibition (AKT2 (human)) [%]	inhibition (PRKACA (mouse)) [%]	also measured
C=CC(=O)c1ccc2ccccc2c1	0	0	0	0	0	0	0	0	0	0	0	0	0	0	0	0	0	0	0	0	inhibition (PRKCH (human)): 0%; inhibition (RPS6KA2 KD1 (human)): 0%; inhibition (PRKX (human)): 0%; inhibition (PKN1 (human)): 2%; inhibition (STK32B (human)): 0%; inhibition (RPS6KA1 KD1 (human)): 0%; inhibition (RPS6KA4 KD1 (human)): 0%
Cc1ccc(NC(=O)c2cccc(N(C)C)c2)cc1NC(=O)c1ccc(O)cc1	0	0	0	0	1	0	0	0	0	0	3	0	0	0	8	0	0	0	0	7	inhibition (PRKCH (human)): 0%; inhibition (RPS6KA2 KD1 (human)): 0%; inhibition (PRKX (human)): 0%; inhibition (PKN1 (human)): 0%; inhibition (STK32B (human)): 0%; inhibition (RPS6KA1 KD1 (human)): 0%; inhibition (RPS6KA4 KD1 (human)): 0%
O=C1NC(=O)c2c1c1c3ccccc3n3c1c1c2c2ccccc2n1C1CCC3O1	59	28	82	60	58	85	29	73	37	45	12	78	80	87	45	77	71	45	56	65	inhibition (PRKCH (human)): 78%; inhibition (RPS6KA2 KD1 (human)): 81%; inhibition (PRKX (human)): 79%; inhibition (PKN1 (human)): 10%; inhibition (STK32B (human)): 12%; inhibition (RPS6KA1 KD1 (human)): 81%; inhibition (RPS6KA4 KD1 (human)): 77%
CC(C)[C@H](CO)Nc1nc(Nc2ccc(C(=O)O)c(Cl)c2)c2ncn(C(C)C)c2n1	2	0	11	15	5	3	0	0	0	0	3	0	50	0	7	66	3	0	0	21	inhibition (PRKCH (human)): 2%; inhibition (RPS6KA2 KD1 (human)): 79%; inhibition (PRKX (human)): 3%; inhibition (PKN1 (human)): 0%; inhibition (STK32B (human)): 9%; inhibition (RPS6KA1 KD1 (human)): 81%; inhibition (RPS6KA4 KD1 (human)): 44%
N#C/C(=C(/N)Sc1ccc(N)cc1)c1ccccc1C(F)(F)F	0	0	0	1	1	4	0	0	0	0	0	0	0	0	0	0	0	0	0	2	inhibition (PRKCH (human)): 0%; inhibition (RPS6KA2 KD1 (human)): 0%; inhibition (PRKX (human)): 11%; inhibition (PKN1 (human)): 6%; inhibition (STK32B (human)): 0%; inhibition (RPS6KA1 KD1 (human)): 0%; inhibition (RPS6KA4 KD1 (human)): 0%

Reference: the kinase profiling compilation of Christmann-Franck et al. (2016)
